Source: PubChem BioAssay (NCI)
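A five-concentration, 48-hour dose response in 96-well plates underlies each endpoint, interpolated linearly between surrounding concentrations. At the TGI there is no net growth.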

Legend:
Assay in all cases: NCI anticancer screen, dose series, 48 h
[1] = tested on: COLO 205 colon
[2] = tested on: SK-OV-3 ovarian
[3] = tested on: SF-295 CNS
[4] = tested on: NCI-H460 lung
[5] = tested on: NCI/ADR-RES ovarian
[6] = tested on: MCF7 breast
[7] = tested on: U251 CNS
[8] = tested on: NCI-H226 lung
[9] = tested on: KM12 colon
[10] = tested on: SK-MEL-2 melanoma
[11] = tested on: SK-MEL-5 melanoma
[12] = tested on: UACC-257 melanoma
[13] = tested on: HCT-15 colon
[14] = tested on: MOLT-4 leukemia
[15] = tested on: A549 NSCLC
[16] = tested on: OVCAR-5 ovarian
[17] = tested on: NCI-H23 lung
[18] = tested on: BT-549 breast
[19] = tested on: HS 578T breast
[20] = tested on: MDA-MB-231 breast
[21] = tested on: SF-539 CNS
[22] = tested on: SNB-19 CNS
[23] = tested on: UACC-62 melanoma
[24] = tested on: 786-0 renal
[25] = tested on: M14 melanoma
[26] = tested on: HL-60(TB) leukemia
[27] = tested on: MDA-N
[28] = tested on: IGROV1 ovarian
[29] = tested on: DU-145 prostate
[30] = tested on: OVCAR-8 ovarian
[31] = tested on: MALME-3M melanoma
[32] = tested on: TK-10 renal
[33] = tested on: A498 renal
[34] = tested on: SR leukemia
[35] = tested on: UO-31 renal
[36] = tested on: RXF 393 renal
[37] = tested on: OVCAR-3 ovarian
[38] = tested on: EKVX NSCLC
[39] = tested on: ACHN renal
[40] = tested on: SK-MEL-28 melanoma
[41] = tested on: NCI-H522 lung
[42] = tested on: RPMI-8226 leukemia
[43] = tested on: CCRF-CEM leukemia
[44] = tested on: SF-268 CNS
[45] = tested on: HT29 colon
[46] = tested on: OVCAR-4 ovarian
[47] = tested on: MDA-MB-435
[48] = tested on: HOP-62 NSCLC
[49] = tested on: T-47D breast
[50] = tested on: K-562 leukemia
[51] = tested on: HOP-92 NSCLC
[52] = tested on: CAKI-1 renal
[53] = tested on: SN12C renal
[54] = tested on: SW-620 colon
[55] = tested on: PC-3 prostate
[56] = tested on: SNB-75 CNS
[57] = tested on: LOX IMVI melanoma
[58] = tested on: HCT-116 colon
[59] = tested on: HCC-2998 colon

In the case of `O=C(CC1C=Cc2ccccc2N1C(=O)c1ccccc1)c1ccccc1` (stereo not drawn), the TGI [1] is reported as 42.5 µM, the TGI [2] is reported as over 100 µM and the TGI [3] is reported as 78.1 µM. For the same compound, the TGI [4] was over 100 µM, the TGI [5] was over 100 µM and the TGI [6] was over 100 µM. It also gave a TGI [7] of 65.1 µM, a TGI [8] of 99.9 µM and a TGI [9] of 61.8 µM. The TGI [10] was 38.8 µM, the TGI [11] was 30.2 µM and the TGI [12] was 61.3 µM. The TGI [13] was over 100 µM, the TGI [14] was 34.6 µM and the TGI [15] was over 100 µM. For the same compound, the TGI [16] was over 100 µM, the TGI [17] was over 100 µM and the TGI [18] was 69.7 µM. The TGI [19] was 67.4 µM, the TGI [20] was 94 µM and the TGI [21] was 66.7 µM. For the same compound, the TGI [22] was over 100 µM, the TGI [23] was 28.5 µM and the TGI [24] was over 100 µM. It also gave a TGI [25] of 65.6 µM, a TGI [26] of 43.4 µM and a TGI [27] of 39 µM. For the same compound, the TGI [28] was over 100 µM, the TGI [29] was over 100 µM and the TGI [30] was over 100 µM. For the same compound, the TGI [31] was 61 µM, the TGI [32] was over 100 µM and the TGI [33] was 93.5 µM. The TGI [34] was 35.4 µM, the TGI [35] was over 100 µM and the TGI [36] was over 100 µM. For the same compound, the TGI [37] was 34.7 µM, the TGI [38] was 47.4 µM and the TGI [39] was over 100 µM. It also gave a TGI [40] of over 100 µM, a TGI [41] of 53.2 µM and a TGI [42] of 39.9 µM. The TGI [43] was over 100 µM, the TGI [44] was over 100 µM and the TGI [45] was 40.2 µM. The TGI [46] was over 100 µM, the TGI [47] was 47.8 µM and the TGI [48] was over 100 µM. For the same compound, the TGI [49] was over 100 µM, the TGI [50] was over 100 µM and the TGI [51] was 86 µM. The TGI [52] was over 100 µM, the TGI [53] was 45.9 µM and the TGI [54] was over 100 µM. It also gave a TGI [55] of 96.6 µM, a TGI [56] of over 100 µM and a TGI [57] of 67.8 µM. The TGI [58] was 45.6 µM.

`O=C1CSC(c2ccc(Cl)cc2Cl)N1c1ccc(Oc2ccc(Cl)cc2)c(Cl)c1` (stereo not drawn) showed a TGI [1] of 61 µM, a TGI [2] of 85.6 µM and a TGI [3] of 50.9 µM. It also gave a TGI [4] of 84.4 µM, a TGI [5] of 55.1 µM and a TGI [6] of over 100 µM. It also gave a TGI [7] of over 100 µM, a TGI [8] of over 100 µM and a TGI [9] of 50.1 µM. It also gave a TGI [10] of 72.7 µM, a TGI [11] of 43.6 µM and a TGI [12] of over 100 µM. For the same compound, the TGI [13] was 66.4 µM, the TGI [14] was 81.5 µM and the TGI [15] was over 100 µM. It also gave a TGI [16] of over 100 µM, a TGI [17] of 69.6 µM and a TGI [18] of 68.2 µM. The TGI [19] was 41.9 µM, the TGI [20] was 45.2 µM and the TGI [21] was 86.7 µM. For the same compound, the TGI [22] was over 100 µM, the TGI [23] was 53.5 µM and the TGI [24] was 50.1 µM. The TGI [25] was over 100 µM, the TGI [26] was 48.3 µM and the TGI [27] was 98 µM. For the same compound, the TGI [28] was over 100 µM, the TGI [29] was over 100 µM and the TGI [30] was over 100 µM. It also gave a TGI [31] of 38.2 µM, a TGI [32] of over 100 µM and a TGI [34] of 42.8 µM. For the same compound, the TGI [35] was 32.6 µM, the TGI [37] was 65.9 µM and the TGI [38] was 74 µM. The TGI [39] was over 100 µM, the TGI [40] was over 100 µM and the TGI [41] was 31.5 µM. The TGI [42] was 68.3 µM, the TGI [43] was 61.3 µM and the TGI [44] was 51.1 µM. It also gave a TGI [45] of 30.6 µM, a TGI [46] of 78.6 µM and a TGI [47] of 26.3 µM. The TGI [48] was 59.8 µM, the TGI [49] was 90.1 µM and the TGI [50] was over 100 µM. It also gave a TGI [51] of 49.4 µM, a TGI [52] of 98.1 µM and a TGI [59] of over 100 µM. The TGI [53] was over 100 µM, the TGI [54] was over 100 µM and the TGI [55] was over 100 µM. For the same compound, the TGI [56] was 60 µM, the TGI [57] was 36.6 µM and the TGI [58] was 36.2 µM.

`Cc1ccc2nc(-c3ccc(C(C)(C)C)cc3)oc(=O)c2c1` showed a TGI [1] of 35.5 µM, a TGI [2] of 62.1 µM and a TGI [3] of 49 µM. For the same compound, the TGI [4] was 41.6 µM, the TGI [5] was 54.2 µM and the TGI [6] was 63.1 µM. The TGI [7] was 32.5 µM, the TGI [9] was 20.3 µM and the TGI [10] was 56.7 µM. For the same compound, the TGI [11] was 27.6 µM, the TGI [12] was 46.2 µM and the TGI [13] was 54 µM. It also gave a TGI [14] of 39.3 µM, a TGI [15] of over 100 µM and a TGI [16] of 89.5 µM. It also gave a TGI [17] of 68.1 µM, a TGI [18] of 57.3 µM and a TGI [19] of 81.3 µM. For the same compound, the TGI [20] was 54.2 µM, the TGI [21] was 40.6 µM and the TGI [22] was 74.2 µM. For the same compound, the TGI [23] was 49.3 µM, the TGI [24] was 68.2 µM and the TGI [25] was 74 µM. The TGI [26] was 40 µM, the TGI [27] was 67.5 µM and the TGI [28] was 87.6 µM. It also gave a TGI [29] of 68.4 µM, a TGI [30] of 43.9 µM and a TGI [31] of 53.9 µM. The TGI [32] was over 100 µM, the TGI [33] was 62.8 µM and the TGI [34] was 59.7 µM. It also gave a TGI [35] of 70 µM, a TGI [36] of 88.5 µM and a TGI [37] of 60.9 µM. For the same compound, the TGI [38] was 69.8 µM, the TGI [39] was 36.6 µM and the TGI [40] was 62.1 µM. For the same compound, the TGI [41] was 35 µM, the TGI [42] was 48.9 µM and the TGI [43] was 46.9 µM. It also gave a TGI [44] of 70.7 µM, a TGI [45] of 38.3 µM and a TGI [46] of 90.3 µM. For the same compound, the TGI [47] was 43 µM, the TGI [48] was 68.4 µM and the TGI [49] was 83.4 µM. For the same compound, the TGI [50] was 51 µM, the TGI [51] was 63.2 µM and the TGI [52] was 39.6 µM. It also gave a TGI [59] of 27.8 µM, a TGI [53] of over 100 µM and a TGI [54] of over 100 µM. It also gave a TGI [55] of 69.6 µM, a TGI [56] of 47.7 µM and a TGI [57] of 32.3 µM. It also gave a TGI [58] of 51.9 µM.
